In US20090181932A1, “COMPOSITIONS CONTAINING O-SULFATE AND O-PHOSPHATE CONTAINING ARYL SULFONAMIDE DERIVATIVES USEFUL AS beta-AMYLOID INHIBITORS” (Wyeth, priority 2008, published 2009):
Structures can show the parent of a compound that is named as a salt. Where two headings read alike, the source gives them in different places.

Tests used:
Type in all cases: cell-based
[1] = system: Aβ42 generation from APP in CHO cells stably expressing hAPP-REPNL751; assay: Aβ-lowering electrochemiluminescent (MSD ECL) assay of conditioned media, Aβ42
Procedure: (§1) The activity of compounds in lowering the generation of Aβ40 and Aβ42, the most abundant forms of beta amyloid, from APP (amyloid precursor protein) was measured in an electrochemiluminescent (ECL) assay of conditioned media from chinese hamster ovary (CHO) cells stably expressing the human amyloid precursor protein (APP) reporter construct, hAPP-REPNL751 [Sughir, R. et al.; J. Biolog. Chem. (1992) 267: 25602-25608]. Aβ peptides were secreted at high levels into cell culture media by cells carrying the human APP transgene; compounds were tested for their capacity to modulate this production. The Aβ peptide in the conditioned medium was quantitated by a sandwich immunoassay with the Meso Scale Discovery® (MSD®) ECL detection system. Cell metabolism was measured using MTS salt kit (containing a tetrazolium compound 3-(4,5-dimethylthiazol-2-yl)-5-(3-carboxymethoxyphenyl)-2-(4-sulfophenyl)-2H-tetrazolium, inner salt; MTS(a) which measures the mitochondrial activity of cells by the bioreduction of Owen's reagent). This assay consists of the following protocol: • 1. Aβ-Lowering Assay. • a. hAPP-REPNL751 CHO cells were seeded into 96 well plates and incubated until about 60-70% confluence. • b. Medium was removed, cells were washed, and fresh serum-free medium (Ultraculture) was put on cells. • c. Compounds were diluted and then added to the cell medium. • d. Cells were incubated, with compounds, for indicated times. • e. Streptavidin coated Meso Scale Discover (MSD) plates (MSD standard Multi-Array™ 96 plate, cat. #P11SA-1) were washed 3× with TTBS (Tris-buffered saline, the Tween® 20 reagent). • f. 20 μL conditioned medium were removed from the cells, and added to the TTBS prewashed MSD® plates. • g. Standard curve dilutions of synthetic Aβ40 and Aβ42 were prepared and added to the MSD® plates. • h. A reagent mix was prepared in 1% MSD® Blocker A (appropriate concentration of biotinylated 6E10 antibody, detection antibodies to Aβ40, Aβ42, and MSD ruthinylated tag antibody). • i. 20 μL reagent mix was distributed to sample plate. • j. Plates were incubated with shaking overnight at 4° C. • k. Plates were washed 3× with TTBS. • l. 150 μL read buffer was added per well (MSD Read Buffer T, cat#R92TC-2, made 1× with distilled water). • m. Plates were read in MSD plate reader within 2 hours. • 2. MTS Assay: • a. Cells were seeded into 96 well plates and incubated until about 60-70% confluence. • b. Medium was removed, cells were washed, and fresh serum-free medium (Ultraculture) was put on cells. • c. Compounds were diluted and then added to the cell medium. • d. Cells were incubated, with compounds, for indicated times. • e. Using a robot, conditioned medium was removed from the cells, and transferred to a TTBS prewashed MSD plate. • f. Cells were washed 2× in phosphate buffered saline (PBS) and an MTS solution was plated onto the cells. After 1 hour, they were read on a plate reader at 560 nm to determine metabolic activity. • 3. Analysis of Results. • Assays were accepted or rejected based upon specific performance criteria, including regression coefficient of standard curve, adequate signal to noise ratio, sample signals lying within the range of the standard curve, etc. The specific parameters were established for each tissue type prior to performing an assay, and were included in the full analytical procedure. • Plate data from both assays (MTS and MSD ELISA) were transferred into a Microsoft Excel® spreadsheet to determine the toxicity, and inhibition caused by the compounds. Standard curves of Aβ were generated using LSW toolbar Hill slope model 42, with 1/y weighting (general sigmoidal curve with Hill slope, a to d; y=(a−d)/(1+(x/c)̂b)+d). […]

[2] = system: Aβ40 generation from APP in CHO cells stably expressing hAPP-REPNL751; assay: Aβ-lowering electrochemiluminescent (MSD ECL) assay of conditioned media, Aβ40
Procedure: as §1

[3] = system: S3 (γ-secretase like) processing of Notch (Mouse Notch1 with deleted extracellular domain); assay: Whole cell functional Notch assay (HES1-SEAP reporter, P8H6 CHO-K1 cells); conditions: Notch assay reference compounds, read-out: EC50 (Notch induced SEAP levels)
Source text: The activity of compounds in cleaving Notch can be measured in a whole cell functional Notch assay. This is an assay to determine the effects of compounds on the S3 (γ-secretase like) processing of Notch. […] SEAP transactivation is then detected by luminescent assay. The assay consists of the following protocol: • 1. Materials and Methods: • (a) Materials: The P8H6 inducible stable cell line was derived from T-REx™ CHO-K1, stably expressing Tet repressor, Notch (pZX1) and HES1-SEAP (pZX2) reporter constructs. A Wallace 1450® Victor Luminescence Counter is used to measure luminescent signal. […] For vehicle samples, the same volume of 0.2% DMSO/25 mM HEPES buffer was added. • Cells were incubated at 37° C., 5% CO2 for 48 hours. • SEAP levels in the conditioned media were assessed using the Clontech GreatEscAPe™ SEAP Chemiluminescence detection kit according to the manufacturer's instruction. […] After cooling, assay buffer was added, and the sample was incubated with the CSPD® substrate. • Luminescence was measured in a Wallace 1450 Victor luminescence counter. • 2. […] EC50 was calculated by […] using sigmoidal inhibition from B0 to nsb model (model 59). […] Inhibition of Notch processing was measured using the stable transfection reporter assay. […]

[4] = electrochemiluminescent assay, hAPP-REPNL751 CHO cells, read-out: C42: EC50 for inhibition of Aβ42
[5] = electrochemiluminescent assay, hAPP-REPNL751 CHO cells, read-out: C40: EC50 for inhibition of Aβ40
[6] = CHO, reference standards of the beta amyloid assay, read-out: EC50αβ42

| SMILES | EC50 [1, 4] | EC50 [2, 5] | other results |
| --- | --- | --- | --- |
| CC[C@H](C)[C@@H](COS(=O)(=O)O)NS(=O)(=O)c1ccc(Cl)cc1 [Example 4, (2S,3S)-2-{[(4-chlorophenyl)sulfonyl]amino}-3-methylpentyl Hydrogen Sulfate, Sodium Salt] | 15000 nM | 15000 nM |  |
| CC[C@H](CC(F)(F)F)[C@@H](CO)NS(=O)(=O)c1ccc(Cl)s1 [5-chloro-N-[(1S,2R)-2-ethyl-4,4,4-trifluoro-1-(hydroxymethyl)butyl]thiophene-2-sulfonamide, reference compound] |  |  | EC50 [1, 6]: 5 nM; EC50 ([2]; CHO, reference standards of the beta amyloid assay, read-out: EC50αβ40): 6 nM |
| CCC(CC)[C@@H](COS(=O)(=O)O)NS(=O)(=O)c1ccc(Cl)s1 [Example 3, (2S)-2-{[(5-chloro-2-thienyl)sulfonyl]amino}-3-ethylpentyl Hydrogen Sulfate, Sodium Salt] | 234 nM | 243 nM |  |
| CC(C)[C@H](O)C(=O)N[C@@H](C)C(=O)N[C@@H]1C(=O)N(C)CCc2ccccc21 [(2S)-2-hydroxy-3-methyl-N-((1S)-1-methyl-2-{[(1S)-3-methyl-2-oxo-2,3,4,5-tetrahydro-1H-3-benzazepin-1-yl]amino}-2-oxoethyl)butanamide, reference compound] |  |  | EC50 [3]: 68 nM; EC50 [1, 6]: 79 nM |
| O=S(=O)(O)OC[C@@H](NS(=O)(=O)c1ccc(Cl)cc1)C(C(F)(F)F)C(F)(F)F [Example 5] |  |  | EC50 ([1]; CHO, read-out: C42: EC50 for inhibition of Aβ42): 4150 nM; EC50 ([2]; CHO, read-out: C40: EC50 for inhibition of Aβ40): 4030 nM |
| O=S(=O)(O)OC[C@@H](NS(=O)(=O)c1ccc(Cl)s1)[C@@H](c1cc(F)cc(F)c1)C(F)(F)F [Example 6, (2S,3R)-2-{[(5-chloro-2-thienyl)sulfonyl]amino}-3-(3,5-difluorophenyl)-4,4,4-trifluorobutyl Hydrogen Sulfate, Sodium Salt] | 1290 nM | 1740 nM |  |
| O=S(=O)(O)OC[C@@H](NS(=O)(=O)c1ccc(Cl)s1)C(C(F)(F)F)C(F)(F)F [Example 1, (2S)-2-{[(5-chloro-2-thienyl)sulfonyl]amino}-4,4,4-trifluoro-3-(trifluoromethyl)butyl Hydrogen Sulfate, Sodium Salt] | 445 nM | 447 nM |  |
| CC[C@@H](C)[C@@H](COS(=O)(=O)O)NS(=O)(=O)c1ccc(Cl)s1 [Example 2, (2S,3R)-2-{[(5-chloro-2-thienyl)sulfonyl]amino}-3-methylpentyl Hydrogen Sulfate, Sodium Salt] | 15000 nM | 15000 nM |  |
